This passage reports Drug uptake results from ChEMBL document CHEMBL6127037, “Design, synthesis, and biological evaluation of imidazolylacetophenone oxime derivatives as novel brain-penetrant agents for Alzheimer's disease treatment” (Eur J Med Chem, 2024).

Structures are written as SMILES.

The nature of data set [1]: Drug distribution in ICR mouse muscle measured at 1.25 to 57.5 mins by micro-PET/CT imaging analysis. Type of data set: ADME, tissue-based, Muscle tissue. The following applies: in vivo, time 1.25-57.5 min.
Data set [2] is described as follows: Drug distribution in ICR mouse brain measured at 1.25 mins by micro-PET/CT imaging analysis. In kind it is ADME, tissue-based. The settings on record: in vivo, 75 s.
Data set [3] can be described thus: Drug distribution in ICR mouse lung measured at 1.25 mins by micro-PET/CT imaging analysis. The following applies: in vivo, 75 s. In kind it is ADME, tissue-based.
Data set [4] is described as follows: Drug distribution in ICR mouse brain measured at 60 mins by micro-PET/CT imaging analysis. The settings on record: in vivo, 1 h. In kind it is ADME, tissue-based.
A short description of data set [5]: Drug distribution in ICR mouse brain measured after 4 to 5 mins by micro-PET/CT imaging analysis. The following applies: in vivo, time 4-5 min. In kind it is ADME, tissue-based.
Data set [6] can be described thus: Drug distribution in ICR mouse heart measured at 1.25 mins by micro-PET/CT imaging analysis. Type of data set: ADME, tissue-based. The following applies: in vivo, 75 s.
Data set [7] can be described thus: Drug distribution in ICR mouse kidney measured at 5.5 mins by micro-PET/CT imaging analysis. Type of data set: ADME, tissue-based. The settings on record: in vivo.
A short description of data set [8]: Drug distribution in ICR mouse kidney measured at 1.25 mins by micro-PET/CT imaging analysis. In kind it is ADME, tissue-based. The following applies: in vivo, 75 s.
A short description of data set [9]: Drug distribution in ICR mouse lung measured at 60 mins by micro-PET/CT imaging analysis. Type of data set: ADME, tissue-based. The settings on record: in vivo, 1 h.
Data set [10] in a line: Drug distribution in ICR mouse heart measured at 60 mins by micro-PET/CT imaging analysis. Type of data set: ADME, tissue-based. The following applies: in vivo, 1 h.
Data set [11] in a line: Drug distribution in ICR mouse kidney measured at 60 mins by micro-PET/CT imaging analysis. Type of data set: ADME, tissue-based. The following applies: in vivo, 1 h.
The nature of data set [12]: Drug distribution in ICR mouse brain measured at 1 mins by micro-PET/CT imaging analysis. In kind it is ADME, tissue-based. The following applies: in vivo.
A short description of data set [13]: Drug distribution in ICR mouse liver measured at 1.25 mins by micro-PET/CT imaging analysis. The settings on record: in vivo, 75 s. In kind it is ADME, tissue-based.
Data set [14] is described as follows: Drug distribution in ICR mouse bone measured at 1.25 to 57.5 mins by micro-PET/CT imaging analysis. The following applies: in vivo, time 1.25-57.5 min. Type of data set: ADME, tissue-based, Bone element.
The nature of data set [15]: Drug distribution in ICR mouse liver measured at 60 mins by micro-PET/CT imaging analysis. Type of data set: ADME, tissue-based. The following applies: in vivo, 1 h.

In the case of `[18F]CCO/N=C(\Cn1ccnc1)c1ccc2c(c1)OCO2`, the Drug uptake result in data set [1] is listed as “Active”; in [2], 7.4 %ID/cc; in data set [3] it was 5.2 %ID/cc; in data set [4] it was “Not Active”; in data set [5], “Not Active”; in data set [6], 5 %ID/cc. The Drug uptake result in data set [7] is reported as “Active”; in data set [8] it was 3.8 %ID/cc; in data set [9] it was “Not Active”; in data set [10] it was “Not Active”; in data set [11], “Not Active”; in data set [12] it was “Active”. Besides, the values for the Drug uptake in data set [13], in [14] and in data set [15] were 18.1 %ID/cc, “Active” and “Not Active”, respectively.
